Assay results as given in paper PMC12260505, “First-in-Human Phase I/IIa Study of the First-in-Class CDK2/4/6 Inhibitor PF-06873600 Alone or with Endocrine Therapy in Patients with Breast Cancer” (Clinical Cancer Research, 2025).
Values joined by “and” are separate entries in the source; they are usually repeats but may differ in a detail not shown here. Equal entries are not always repeated.

Test: Plasma PF-06873600 pharmacokinetics (LC/MS-MS, noncompartmental analysis)
Assay type: in vivo, human
Protocol: Plasma samples were analyzed for PF-06873600 concentrations at Q2 Solutions using a validated analytic assay in compliance with Pfizer standard operating procedures. PF-06873600 samples were assayed by a validated LC/MS-MS using positive ionization mode. PK parameters were calculated using noncompartmental analysis of plasma concentration–time data.

[1] = Cycle 1 Day 15, Part 1A 1 mg BID IR
[2] = Cycle 1 Day 15, Part 1A 2 mg BID IR
[3] = Cycle 1 Day 15, Part 1A 5 mg BID IR
[4] = Cycle 1 Day 15, Part 1A 10 mg BID IR
[5] = Cycle 1 Day 15, Part 1A 25 mg BID Biomarker IR
[6] = Cycle 1 Day 15, Part 1A 25 mg BID IR
[7] = Cycle 1 Day 15, Part 1A 35 mg BID IR
[8] = Cycle 1 Day 15, Part 1A 35 mg BID Intm 5/2 IR
[9] = Cycle 1 Day 15, Part 1A 50 mg BID IR
[10] = Cycle 1 Day 15, Part 1B 25 mg BID +Ful IR
[11] = Cycle 1 Day 15, Part 1B 25 mg BID +Let IR
[12] = Cycle 1 Day 15, Part 1C MR 30 mg BID long duration
[13] = Day -4, Part 1C single dose 20 mg MR Long Duration
[14] = Day -7, Part 1C single dose 20 mg MR Short Duration

C[C@@]1(O)CCC[C@H]1n1c(=O)c(C(F)F)cc2cnc(NC3CCN(S(C)(=O)=O)CC3)nc21 [PF-06873600]
Cmax, individual value(s) [1]: 10.9 ng/mL
Cmin, individual value(s) [1]: 0.000 ng/mL
Rac (observed accumulation ratio based on AUC), individual value(s) [1]: 1.21
Tmax, median (range) [1]: 1.00 h
AUCtau, individual value(s) [2]: 51.4 ng·h/mL and 86.9 ng·h/mL
CL/F, individual value(s) [2]: 23.0 L/h and 38.9 L/h
Cmax, individual value(s) [2]: 18.2 ng/mL and 45.4 ng/mL
Rac (observed accumulation ratio based on AUC), individual value(s) [2]: 1.16
Tmax, median (range) [2]: 1.25 h
Vz/F, individual value(s) [2]: 53.3 L and 98.4 L
t1/2, individual value(s) [2]: 5800 s and 6300 s
Cmin, individual value(s) (Cycle 1 Day 15, Part 1A 2 mg BID IR (both patients 0.000)): 0.000 ng/mL
AUCtau, individual value(s) [3]: 150 ng·h/mL and 483 ng·h/mL
CL/F, individual value(s) [3]: 10.4 L/h and 33.2 L/h
Cmax, individual value(s) [3]: 46.3 ng/mL and 126 ng/mL
Cmin, individual value(s) [3]: 1.19 ng/mL and 23.6 ng/mL
Rac (observed accumulation ratio based on AUC), individual value(s) [3]: 1.53
Tmax, median (range) [3]: 1.20 h
Vz/F, individual value(s) [3]: 124 L
t1/2, individual value(s) [3]: 9320 s
AUCtau, geometric mean (%CV) [4]: 448.8 (25) ng.h/mL
CL/F, geometric mean (%CV) [4]: 22.28 (24) L/h
Cmax, geometric mean (%CV) [4]: 124.3 (29) ng/mL
Cmin, geometric mean (%CV) [4]: 5.499 (5) ng/mL
Rac (observed accumulation ratio based on AUC), geometric mean (%CV) [4]: 0.7263
Tmax, median (range) [4]: 2.00 h
Vz/F, geometric mean (%CV) [4]: 72.17 (19) L
t1/2, arithmetic mean±standard deviation [4]: 2.250 h
AUCtau, geometric mean (%CV) [5]: 1010 (40) ng.h/mL
CL/F, geometric mean (%CV) [5]: 24.76 (40) L/h
Cmax, geometric mean (%CV) [5]: 246.4 (40) ng/mL
Cmin, geometric mean (%CV) [5]: 21.28 (130) ng/mL
Rac (observed accumulation ratio based on AUC), geometric mean (%CV) [5]: 1.254 (49)
Tmax, median (range) [5]: 1.92 h
Vz/F, geometric mean (%CV) [5]: 99.62 (35) L
t1/2, arithmetic mean±standard deviation [5]: 2.797 h
AUCtau, geometric mean (%CV) [6]: 1695 (34) ng.h/mL
CL/F, geometric mean (%CV) [6]: 14.78 (34) L/h
Cmax, geometric mean (%CV) [6]: 382.4 (33) ng/mL
Cmin, geometric mean (%CV) [6]: 37.63 ng/mL
Rac (observed accumulation ratio based on AUC), geometric mean (%CV) [6]: 1.045 (17)
Tmax, median (range) [6]: 1.95 h
Vz/F, geometric mean (%CV) [6]: 57.62 (29) L
t1/2, arithmetic mean±standard deviation [6]: 2.733 h
AUCtau, individual value(s) [7]: 2060 ng·h/mL and 2360 ng·h/mL
CL/F, individual value(s) [7]: 14.8 L/h and 17.0 L/h
Cmax, individual value(s) [7]: 362 ng/mL and 399 ng/mL
Cmin, individual value(s) [7]: 52.1 ng/mL and 80.4 ng/mL
Rac (observed accumulation ratio based on AUC), individual value(s) [7]: 0.822
Tmax, median (range) [7]: 2.01 h
Vz/F, individual value(s) [7]: 70.8 L
t1/2, individual value(s) [7]: 11900 s
AUCtau, geometric mean (%CV) [8]: 1372 (39) ng.h/mL
CL/F, geometric mean (%CV) [8]: 25.54 (39) L/h
Cmax, geometric mean (%CV) [8]: 290.2 (29) ng/mL
Cmin, geometric mean (%CV) [8]: 25.56 (8) ng/mL
Rac (observed accumulation ratio based on AUC), geometric mean (%CV) [8]: 0.8893
Tmax, median (range) [8]: 2.23 h
Vz/F, geometric mean (%CV) [8]: 99.03 (48) L
t1/2, arithmetic mean±standard deviation [8]: 2.752 h
AUCtau, geometric mean (%CV) [9]: 1607 (34) ng.h/mL
CL/F, geometric mean (%CV) [9]: 21.99 (44) L/h
Cmax, geometric mean (%CV) [9]: 335.2 (22) ng/mL
Cmin, geometric mean (%CV) [9]: 25.63 ng/mL
Rac (observed accumulation ratio based on AUC), geometric mean (%CV) [9]: 1.260 (25)
Tmax, median (range) [9]: 1.98 h
Vz/F, geometric mean (%CV) [9]: 75.41 (17) L
t1/2, arithmetic mean±standard deviation [9]: 2.535 h
AUCtau, geometric mean (%CV) [10]: 1229 (41) ng.h/mL
CL/F, geometric mean (%CV) [10]: 20.35 (41) L/h
Cmax, geometric mean (%CV) [10]: 305.0 (35) ng/mL
Cmin, geometric mean (%CV) [10]: 21.25 ng/mL
Rac (observed accumulation ratio based on AUC), geometric mean (%CV) [10]: 1.191 (29)
Tmax, median (range) [10]: 1.88 h
Vz/F, geometric mean (%CV) [10]: 75.71 (32) L
t1/2, arithmetic mean±standard deviation [10]: 2.508 h
AUCtau, geometric mean (%CV) [11]: 1273 (50) ng.h/mL
CL/F, geometric mean (%CV) [11]: 19.63 (49) L/h
Cmax, geometric mean (%CV) [11]: 276.5 (31) ng/mL
Cmin, geometric mean (%CV) [11]: 13.33 ng/mL
Rac (observed accumulation ratio based on AUC), geometric mean (%CV) [11]: 1.268 (35)
Tmax, median (range) [11]: 2.08 h
Vz/F, geometric mean (%CV) [11]: 80.33 (27) L
t1/2, arithmetic mean±standard deviation [11]: 2.468 h
AUCtau, geometric mean (%CV) [12]: 636.8 (59) ng.h/mL
CL/F, geometric mean (%CV) [12]: 47.08 (59) L/h
Cmax, geometric mean (%CV) [12]: 82.1 ng/mL
Cmin, geometric mean (%CV) [12]: 45.78 (49) ng/mL
Tmax, median (range) [12]: 2.99 (0.000–4.00) h
AUCinf, individual value(s) [13]: 584 ng·h/mL and 713 ng·h/mL
AUClast, geometric mean (%CV) [13]: 469.7 (63) ng.h/mL
CL/F, individual value(s) [13]: 28.0 L/h and 34.3 L/h
Cmax, geometric mean (%CV) [13]: 39 ng/mL
Tmax, median (range) [13]: 12.0 (6.00–12.0) h
Vz/F, individual value(s) [13]: 163 L and 496 L
t1/2, individual value(s) [13]: 14500 s and 36000 s
AUCinf, geometric mean (%CV) [14]: 687.8 (73) ng.h/mL
AUClast, geometric mean (%CV) [14]: 639.7 (67) ng.h/mL
CL/F, geometric mean (%CV) [14]: 29.05 (73) L/h
Cmax, geometric mean (%CV) [14]: 73.7 ng/mL
Tmax, median (range) [14]: 5.33 (2.00–6.00) h
Vz/F, geometric mean (%CV) [14]: 218.1 (50) L
t1/2, arithmetic mean±standard deviation [14]: 6.778 ± 5.7890 h
Part of dosing interval with mean steady-state PK concentrations above predicted effective concentrations (Ceff) (RDE 25 mg twice daily, Ceff from HCC1428, HCC1806, and Ovar3 models): at least 70 % of the dosing interval
Criterion of concentrations above Ceff for at least 70% of the dosing interval (RDE 25 mg twice daily, Ceff from the MCF7 model): not achieved
Plasma exposures, monotherapy vs combination therapy with fulvestrant or letrozole (in vivo): largely comparable
